# Reference: patent publication US4613604A, “Hydroxymethyl derivatives of 5-benzylacyclouridine and 5-benzoyloxybenzylacyclouridine and their use as potentiators for 5-fluoro-2'-deoxyuridine” (Brown University Research Foundation, priority 1985, dated 1986)
# Where “and” joins values, the source holds several entries; their conditions need not be identical. Equal entries are not always repeated. Where two headings read alike, the source gives them in different places.
# How the values were obtained:
# [1] = system: human pancreatic carcinoma (DAN); assay: Growth inhibition of pancreatic carcinoma DAN cells in culture by FdUrd with or without potentiator; assay type: cell-based; conditions: for in vitro antineoplastic activity of FdUrd with potentiator, in words: DAN cells, combination with FdUrd; for effect of potentiator alone on the growth of DAN in culture: potentiator alone at 50 μM, no FdUrd
# Protocol: Determination of the activities of HM-BAU and HM-BBAU as potentiators of FdUrd anti-neoplastic activity was carried out using a human pancreatic carcinoma (DAN) in culture. Details of the procedure are described in Chu et al., supra. Table 1 summarizes the effect of HM-BAU and HM-BBAU upon the inhibitory effect of FdUrd on the growth of pancreatic DAN cells in culture.
# FdUrd alone at 0.1 and 0.3 μM inhibited the cell growth by 20% and 34% respectively.
# [2] = background statement, in words; cited from earlier work
# uridine phosphorylase [3] = conditions: among the acyclouridines developed; cited from earlier work
# [4] = system: cleavage of FdUrd in certain tumor extracts; conditions: cited from earlier work
# [5] = system: human pancreatic carcinoma (DAN); conditions: in vitro; cited from earlier work
# [6] = system: human lung carcinoma (LX-1); conditions: LX-1, in vitro; cited from earlier work
# [7] = system: human pancreatic carcinoma (DAN); conditions: in vivo; cited from earlier work
# [8] = system: human lung carcinoma (LX-1); conditions: LX-1, in vivo; cited from earlier work
# uridine phosphorylase [9] = assay: Inhibition of uridine phosphorylase from mouse liver (105,000×g supernatant of liver homogenate); assay type: biochemical; conditions: mouse liver enzyme; apparent Ki = Ki(1+[S]/Km); type of inhibition not characterized
# Protocol: (§1) Testing of compounds HM-BAU and HM-BBAU as inhibitors of uridine phosphorylase was performed using 105,000×g supernatant of mouse liver and human liver homogenates. Enzyme assays were carried out as described in Niedzwicki et al., Biochem. Pharm. 31, 1857 (1982), supra. Apparent Ki values are related to Ki by the following equation: [formula] where Kis and Kii are the inhibition constants that would have been estimated from the replots of slope and intercept, respectively, of a Lineweaver-Burk plot vs [I]. If a compound is a competitive inhibitor with respect to the substrate uridine. Kii =.infin. and Kis =Ki. Therefore:
# (§2) apparent Ki =Ki (1+[S]/Km)
# (§3) Thus, the true Ki values would be lower than the apparent Ki values by a factor of (1+S/Km). It must be noted, however, that these compounds were not characterized with regard to the type of inhibition (i.e. competitive, non-competitive or uncompetitive), nor were they tested as substrates for uridine phosphorylase.
# uridine phosphorylase [10] = assay: Inhibition of uridine phosphorylase from human liver (105,000×g supernatant of liver homogenate); assay type: biochemical; conditions: for Ki: human liver enzyme, apparent Ki = Ki(1+[S]/Km), type of inhibition not characterized; for inhibition of human liver uridine phosphorylase, in words: compared with BAU and BBAU
# Protocol: as §1, §2, §3
# Water solubility = assay type: physicochemical; conditions: in words
# [11] = potentiator 50 μM, added 5 minutes prior to FdUrd 0.1 μM, P < 0.001 vs control, p < 0.01 from one another
# [12] = potentiator 50 μM, added 5 minutes prior to FdUrd 0.3 μM
compound,measurement,setting,value
"O=c1[nH]c(=O)n([C@H]2C[C@H](O)[C@@H](CO)O2)cc1F [FdUrd, 5-fluoro-2'-deoxyuridine]",% Growth Inhibition of DAN cells in culture,"[1]; FdUrd 0.1 μM alone, no potentiator",20%
same,% Growth Inhibition of DAN cells in culture,"[1]; FdUrd 0.3 μM alone, no potentiator",34%
same,inhibition at 0.1 µM,"[1]; Homo sapiens, FdUrd 0.1 μM alone, no potentiator",20.2 ± 1.1%
same,inhibition at 0.3 µM,"[1]; Homo sapiens, FdUrd 0.3 μM alone, no potentiator",33.8 ± 1.3%
same,inhibition at 1 µM,"[1]; Homo sapiens, FdUrd 1.0 μM alone, no potentiator",66 ± 1.4%
"O=c1[nH]c(=O)n(COCCO)cc1Cc1ccccc1 [BAU, 5-benzylacyclouridine]",water solubility,[2],not very water soluble
same,"effectiveness as uridine phosphorylase inhibitor, in words",uridine phosphorylase [3],particularly effective
same,inhibition of cleavage of FdUrd,[4],inhibit the cleavage of FdUrd
same,enhancement of antineoplastic activity of FdUrd,[5],enhance the antineoplastic activity of FdUrd
same,enhancement of antineoplastic activity of FdUrd,[6],enhance the antineoplastic activity of FdUrd
same,enhancement of antineoplastic activity of FdUrd,[7],enhance the antineoplastic activity of FdUrd
same,enhancement of antineoplastic activity of FdUrd,[8],enhance the antineoplastic activity of FdUrd
"O=c1[nH]c(=O)n(COC(CO)CO)cc1Cc1ccccc1 [HM-BAU, 5-Benzyl-1-[(1,3-dihydroxy-2-propoxy)methyl]uracil]",Ki,uridine phosphorylase [9],1.6 µM
same,Ki,uridine phosphorylase [10],2.5 µM
same,"inhibition of human liver uridine phosphorylase, in words",uridine phosphorylase [10],excellent inhibitors of this enzyme and superior to BAU and BBAU
same,"in vitro antineoplastic activity of FdUrd with potentiator, in words",[1],significantly potentiated
same,% Growth Inhibition of DAN cells in culture,[1]; [11],63.4 ± 1.1% and 63%
same,% Growth Inhibition of DAN cells in culture,[1]; [12],67.8 ± 1.7% and 68%
same,effect of potentiator alone on the growth of DAN in culture,[1],do not affect the growth of DAN in culture
same,water solubility,Water solubility,water soluble
"O=c1[nH]c(=O)n(COCCO)cc1Cc1cccc(OCc2ccccc2)c1 [BBAU, 5-benzyloxybenzylacyclouridine]",water solubility,[2],not very water soluble
same,"effectiveness as uridine phosphorylase inhibitor, in words",uridine phosphorylase [3],particularly effective
same,inhibition of cleavage of FdUrd,[4],inhibit the cleavage of FdUrd
same,enhancement of antineoplastic activity of FdUrd,[5],enhance the antineoplastic activity of FdUrd
same,enhancement of antineoplastic activity of FdUrd,[6],enhance the antineoplastic activity of FdUrd
same,enhancement of antineoplastic activity of FdUrd,[7],enhance the antineoplastic activity of FdUrd
same,enhancement of antineoplastic activity of FdUrd,[8],enhance the antineoplastic activity of FdUrd
"O=c1[nH]c(=O)n(COC(CO)CO)cc1Cc1cccc(OCc2ccccc2)c1 [HM-BBAU, 5-(m-Benzyloxybenzyl)-1-[(1,3-dihydroxy-2-propoxy)methyl]uracil]",Ki,uridine phosphorylase [9],0.32 µM
same,Ki,uridine phosphorylase [10],0.65 µM
same,"inhibition of human liver uridine phosphorylase, in words",uridine phosphorylase [10],excellent inhibitors of this enzyme and superior to BAU and BBAU
same,"in vitro antineoplastic activity of FdUrd with potentiator, in words",[1],significantly potentiated
same,% Growth Inhibition of DAN cells in culture,[1]; [11],73.6 ± 0.3% and 74%
same,% Growth Inhibition of DAN cells in culture,"[1]; potentiator 50 μM, added 5 minutes prior to FdUrd 0.1 μM, P < 0.001 vs control, p < 0.01 from one another, listed as HN-BBAU",74%
same,% Growth Inhibition of DAN cells in culture,[1]; [12],83.2 ± 1.3% and 83%
same,% Growth Inhibition of DAN cells in culture,"[1]; potentiator 50 μM, added 5 minutes prior to FdUrd 0.3 μM, listed as HN-BBAU",83%
same,effect of potentiator alone on the growth of DAN in culture,[1],do not affect the growth of DAN in culture
same,water solubility,Water solubility,water soluble
